Results: article PMC8567104 (Frontiers in Pharmacology, 2021)
Values joined by “and” are separate entries in the source; they are usually repeats but may differ in a detail not shown here. Equal values may be shown once. Read-outs that look alike come from different tables or passages of the source.

Assays:
[1] = biological target: T1, hNav1.5 (Homo sapiens, UniProt Q14524)
Description: (§1) Electrophysiological experiments were performed as previously described ([Ludolph et al., 2010]; [Föhr et al., 2021]). Briefly, tsA201 cells were used for experiments 24–48 h after transfection. Membrane currents were recorded in the whole-cell recording mode using an EPC-9 amplifier and Patchmaster software (v2x73; HEKA, Lambrecht, Germany ([Hamill et al., 1981])). Before recording, cells were rinsed twice with an extracellular standard solution containing (in mM): 140 NaCl, 5 KCl, 1.5 CaCl2, 1.0 MgCl2, 10 glucose and 12 HEPES (4-(2-hydroxyethyl)piperazine- 1-ethanesulfonic acid; pH 7.3). For establishing activation curves, the concentration of NaCl was reduced to 30 mM to achieve current amplitudes in the range of 1 nA. Lacking cations were replaced equimolar by N-Methyl-D-glucamine (NMDG). Patch pipettes were drawn from borosilicate glass with tip resistances of about 2 MΩ when filled with (in mM): 125 CsF, 10 NaCl, 10 EGTA (ethylene glycol-bis(2-aminoethylether)-N,N,N′,N′-tetraacetic acid), 10 HEPES; pH 7.2. To improve sealing, tips were briefly dipped into 2% dimethylsilane dissolved in dichloromethane.
(§2) Unless otherwise stated, the membrane potential was held at −140 mV from which channel activations were elicited by brief depolarizing pulses to −20 mV of 5 ms duration. In order to minimize voltage errors, the series resistance was compensated up to 80%. Cells with currents larger than 6 nA were excluded from evaluation. Specific protocols are illustrated in figure legends where appropriate.

[2] = biological target: hNav1.5 N406C mutant (Homo sapiens, UniProt Q14524, N406C); settings: inactivated channels
Description: as §1
(§3) Concentration-inhibition curves for estimating Kr (IC 50 at −140 mV; Figure 3), Ki (Figures 8, 13, 14), Ko (Figures 12, 17) or K app (Figure 9) were fitted to the Hill-equation.

[3] = biological target: hNav1.5 F1760K mutant (Homo sapiens, UniProt Q14524, F1760K, form not given); settings: inactivated channels
Description: as §1, §3

[4] = biological target: T1, hNav1.5; settings: 10 µM
Description: as §1, §2
Recovery time constants were estimated from double or triple exponential fits according to: I/Imax=1−a1∗e^(−t/τ1)−a2∗e^(−t/τ2)−a3∗e^(−t/τ3) (11)
Variable identifiers have the same meaning as before, with a 1 + a 2 + a 3 = 1.
If a drug interacts with the inactivated state (fast or slow), it is expected that also recovery from inactivation is affected. We analyzed this aspect by the use of a tri-pulse experiment (Figure 10B). After an initial control pulse, sufficient time was provided for full recovery. Next channels were inactivated for 500 ms at −20 mV. The test-pulse was initiated after channels had been allowed to recover at a potential of −140 mV for a variable time (range: 0.2 ms to 2.7 s). For evaluation, the current amplitudes of the test-pulses were related to their controls and plotted versus the recovery time (Figure 10A). To describe the time course of recovery, data points were fitted with double exponential functions (Eq. 11). […] In order to estimate recovery from slow inactivation, the experimental scheme was modified to a prolonged inactivation time (10 s) and an expansion of the recovery time up to 32.8 s (Figure 10D).
FIGURE 10 Recovery from inactivation. (A) Recovery from fast inactivation. The relative amount of available channels versus the recovery time at −140 mV is illustrated. Solid lines represent fits with two exponential functions according to Eq. 11. (B) Experimental scheme. After an initial control pulse, inactivation was performed at −20 mV for 500 ms. The test-pulse was applied after a varying time of recovery. For evaluation, current amplitudes of the test-pulses were related to their controls.

[5] = biological target: T1, hNav1.5; settings: 40 µM (highest concentration tested); holding potential −140 mV; 30 s preincubation
Description: as §1
Unless otherwise stated, the membrane potential was held at −140 mV from which channel activations were elicited by brief depolarizing pulses to −20 mV of 5 ms duration. In order to minimize voltage errors, the series resistance was compensated up to 80%. […]

[6] = biological target: T1, hNav1.5; assay: Voltage-dependence of fast inactivation; assay type: cell-based; design: expressed in transfected cells; host or cells: tsA201 (HEK293 derivative)
Description: as §1, with “dichloromethane. […]” for “dichloromethane.”
FIGURE 5 Voltage-dependence of fast inactivation. […] Voltage-dependence of fast inactivation was determined by measuring sodium currents elicited by 5 ms depolarizations to −20 mV after conditioning pre-pulses for 500 ms to different potentials (range −140 to −45 mV).

[7] = design: method as in Allen et al., 2016; settings: weekly oral dose of 625 mg; patients; ref Allen et al., 2016; cited from earlier work
[8] = biological target: T1, hNav1.5; assay: cell-based
Description: as §1, §2

[9] = biological target: T1, hNav1.5; assay: Interaction with the inactivated state: steady-state parameters (20 s inactivation at −20 mV); assay type: cell-based; design: expressed in transfected cells; host or cells: tsA201 (HEK293 derivative); settings: for Hill-coefficient n: concentration-inhibition curve after 20 s inactivation at −20 mV
Description: as §1, §2, §3
I D and I C are the current amplitudes in the presence and absence of the drug, where [D] is the concentration of the drug.
To this end, a double pulse protocol was used as outlined by Figure 8B. […] To minimize drift effects during these long-lasting experiments, each run included its own control. Thus, drug effects as measured by the test-pulse were related to the timely executed control activation. […]

[10] = biological target: T1, hNav1.5; assay: Time-dependent development of block (inactivating pre-pulse to −20 mV of variable duration); assay type: cell-based; design: expressed in transfected cells; host or cells: tsA201 (HEK293 derivative); settings: for remaining current at the longest inactivation time: inactivation up to 30 s at −20 mV; for time constant of reduction of availability: single exponential, inactivation at −20 mV; for Amount of τ1 component / Amount of τ2 component / τ1 of block development / τ2 of block development: double exponential fit
Description: as §1, §2
Association (k on in µM^−1s^−1) and dissociation rates (k off in s^−1) were estimated from the slope and the y-intercept of a linear regression where the inverse of the fast time constants (1/τ) was plotted against the drug concentration [D] (Kuo et al., 1997). 1/τ=koff+kon∗[D] (9)
The corresponding dissociation constants were calculated according to: Kd=koff/kon (10)
Next, a set of experiments was performed to describe the time course of block development. The protocol is illustrated in Figure 7D. Briefly, after channel activation from a holding potential of −140 mV for control, ample time for full recovery at the holding potential was provided. Thereafter, the channels were inactivated for a variable duration (range: 25 ms–30 s) at a potential of −20 mV. Immediately before the test-pulse, channels were allowed to recover once more at the holding potential to eliminate or minimize the impact from fast inactivation. For evaluation, the current amplitudes obtained for test-pulses were related to their controls. […] For further evaluation, data were normalized with respect to control values (Figure 7B). […] The on-rate (k on ) was directly taken from the slope of the linear regression and the off-rate (k off ) was given by the y-intercept (Eq. 9, 10). For estimating the affinity for the inactivated state, the K i values were separately calculated for each cell according to the relation K i = k off /k on .
FIGURE 7 Time-dependent interaction. […] (B) Data from A, normalized with respect to control. […] Kon and koff values were taken from the slope and the y-intercept of the linear regression, respectively. […] (D) Experimental scheme. Starting from a holding potential of −140 mV, first a control pulse to […] was executed. Thereafter, ample time (2 s) was given to allow for full recovery before channels were inactivated for a variable duration at −20 mV. The test-pulse was carried out after a short recovery at −140 mV. For evaluation, test-pulse amplitudes were related to their controls.
FIGURE 15 Time-dependent interaction of imipridone derivatives.

[11] = biological target: T2, hNav1.5_I408W_L409C_A410W (WCW mutant) (Homo sapiens, UniProt Q14524, A410W/I408W/L409C); assay: Open channel block, persistent current of inactivation-deficient WCW mutant; assay type: cell-based; settings: for Hill-coefficient: persistent current
T2 construct: expressed in transfected cells; host or cells: tsA201 (HEK293 derivative)
Description: as §1, §2, §3

Cc1ccccc1CN1C(=O)C2=C(CCN(Cc3ccccc3)C2)N2CCN=C12 [TIC10]
current amplitude in the presence of TIC10 compared to control ([1]; 10 µM, holding potential −90 mV, depolarization to −20 mV): about half of its size
slope (k) of activation curve ([1]; in the presence of 10 µM, control 7.2 ± 0.6 mV): 7.9 ± 0.8 mV
potential of half-maximal activation (midpoint of activation curve) ([1]; in the presence of 10 µM, control −43.1 ± 2.9 mV): −44.8 ± 2.8 mV
Hill-coefficient [2]: 1.2 ± 0.1
Hill-coefficient ([3]; F1760K mutant): 1.5 ± 0.1
reduction of affinity of F1760K mutant compared to wild type [3]: more than 20 fold
Amount of τ1 component ([4]; 10 s inactivation): 36.3 ± 16.0%
Amount of τ2 component ([4]; 10 s inactivation): 62.2 ± 15.7%
τ1 for recovery from slow-inactivation ([4]; 10 s inactivation): 128.1 ± 80.3 ms
τ2 for recovery from slow-inactivation ([4]; 10 s inactivation): 548.4 ± 287.4 ms
proportion of fast recovering channels ([4]; 500 ms inactivation at −20 mV, recovery at −140 mV, control 92.6 ± 4.0%): 75.6 ± 7.0%
recovery time constant τ1 ([4]; control 1.4 ± 0.6 ms): 2.3 ± 1.2 ms
recovery time constant τ2 ([4]; control 23.6 ± 12.0 ms): 267.6 ± 73.1 ms
remaining current (of control) [5]: 93.2 ± 4.3%
slope of fast inactivation curve ([6]; in the presence of 10 µM, 5.3 ± 0.9 mV in the absence): 5.4 ± 0.9 mV
maximal plasma concentration [7]: 4.3 µM
potential of half-maximal slow inactivation ([8]; 10 µM, 10 s pre-pulses, control −42.9 ± 5.0 mV): −92.7 ± 7.0 mV
slope of slow inactivation curve ([8]; 10 µM, control 21.5 ± 2.7 mV): 12.8 ± 0.9 mV
availability (remaining current amplitude) at pre-pulse potential 0 mV ([8]; 10 µM, control 45.6 ± 10.9%): 4.7 ± 2.8%
inhibition at 10 µM ([8]; read-out: inhibition normalized to control at 0 mV): 89.7 ± 6.5%
inhibition at 10 µM ([8]; read-out: inhibition normalized to control at −40 mV): 88.3 ± 5%
Hill-coefficient n [9]: 1.2 ± 0.1
remaining current at the longest inactivation time ([10]; 2.5 µM, control 59.2 ± 7.7%): 46.0 ± 4.8%
time constant of reduction of availability ([10]; 2.5 µM, control 10.1 ± 2.0 s): 5.3 ± 1.9 s
remaining current at the longest inactivation time ([10]; 10 µM): 16.9 ± 6.4%
time constant of reduction of availability ([10]; 10 µM): 2.0 ± 0.8 s
Hill-coefficient [11]: 0.9 ± 0.1
effect on transient current (resting state) ([11]; up to 40 µM): hardly affected

O=C1C2=C(CCN(Cc3ccccc3)C2)N2CCN=C2N1Cc1ccc(C(F)(F)F)cc1 [ONC212]
shift of midpoints of fast inactivation ([6]; 10 µM, 500 ms pre-pulses, corrected for drug independent shift): −4.7 ± 0.4 mV and −4.7 ± 0.42 mV
IC50 ([9]; after 20 s inactivation at −20 mV, short recovery at −140 mV, wild type, read-out: half-maximal inhibition (IC50), representing the affinity for the inactivated state (Ki)): 2.5 ± 0.7 µM
Hill-coefficient n [9]: 1.5 ± 0.1
Amount of τ1 component ([10]; 2.5 µM): 8.8 ± 4.5%
Amount of τ2 component ([10]; 2.5 µM): 57.4± 6.6%
τ1 of block development ([10]; 2.5 µM): 0.2 ± 0.06 s
τ2 of block development ([10]; 2.5 µM): 4.6 ± 0.95 s
Amount of τ1 component ([10]; 10 µM): 45.2 ± 6.5%
Amount of τ2 component ([10]; 10 µM): 46.9 ± 7.2%
τ1 of block development ([10]; 10 µM): 0.1 ± 0.03 s
τ2 of block development ([10]; 10 µM): 2.2 ± 0.27 s
Hill-coefficient [11]: 1.4 ± 0.2
